Earlier results on three molecules are cited in patent US11135271B2, “Glucagon derivatives with improved stability” (HANMI PHARM. CO., LTD., priority 2014, dated 2021).

The conditions of data set [1]: when taken for 1 year.
For data set [2] the following is noted: according to reports.

Structures are written as SMILES.

Take `CCCCCCCCCCC[C@@H](C[C@@H]1OC(=O)[C@H]1CCCCCC)OC(=O)[C@H](CC(C)C)NC=O` [Orlistat]: in data set [1], the weight loss entry is “about 4 kg”.
In the case of `Cc1c(C(=O)NN2CCCCC2)nn(-c2ccc(Cl)cc2Cl)c1-c1ccc(Cl)cc1` [Rimonabant], in data set [2], the side-effect result is “central nervous system disorder”.
For `CC(C)CC(N(C)C)C1(c2ccc(Cl)cc2)CCC1` (stereo not drawn) [Sibutramine], the side-effect entry in data set [2] is “cardiovascular side-effects”.
